A short description of this assay: GFP-wavelength compound autofluorescence in cells – imaging, high-content imaging, artefact control, dose response (AID 2124).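 As to all read-outs here: cells exposed to compound for 48 hours before fixing.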 The settings on record: cells, GFP-channel autofluorescence, high-content imaging, at 10 µM; for z-score: stronger effect = higher value.

Results filed as inconclusive are left out. Calls of active or inactive are those of the source. No rule for the calls is given here; tested in MIN6 cells.

On to `CCCNC(=O)Cn1c(=O)/c(=C\c2ccc(-c3ccc([N+](=O)[O-])cc3)o2)s/c1=C\C(=O)C(C)(C)C`, for which the z-score is 2.07 and the cell count is 3100 cells.

Consider `CCC(=O)Nc1ccc(C(=O)OCC(=O)c2ccc(C)c([N+](=O)[O-])c2)cc1`, for which the z-score was -0.33 (inactive) and the cell count is 2960 cells.

With `CCOc1ccc2[nH]c(=O)c(CN(CCc3ccccc3)C(=O)N3CCOCC3)cc2c1`, the z-score is -0.26 (inactive) and the cell count is 3100 cells.

Turning to `c1ccc2c(N3CCNCC3)nsc2c1`, the z-score is -0.39 (inactive) and the cell count is 2010 cells.

With `CN(C)S(=O)(=O)Oc1cccc(C(=O)Nc2ccc([N+](=O)[O-])cc2)c1`, the z-score is -0.33 (inactive) and the cell count was determined as 2460 cells.

On to `CCCC(=O)c1c(C)c2ccccc2n1C`, for which the z-score is -0.38 (inactive) and the cell count worked out at 3160 cells.

As for `COc1cccc(S(=O)(=O)NCc2ccc(C(=O)Nc3ccc(Cl)c(Cl)c3)cc2)c1`, the z-score was -0.33 (inactive) and the cell count amounted to 2580 cells.

Consider `COc1ccc(N(CCN2C(=O)c3ccccc3C2=O)C(=O)c2cccc([N+](=O)[O-])c2)cc1`, for which the z-score is -0.25 (inactive) and the cell count turned out to be 2790 cells.

As for `Nc1c(C(=O)O)sc2nc(-c3ccccc3)cc(-c3ccccc3)c12`, the z-score was -0.28 (inactive) and the cell count came to 3320 cells.

For the compound `CCc1cc(C(=O)OC)c(NC(=O)CC2Sc3ccc(C(F)(F)F)cc3NC2=O)s1` (stereo not drawn), the z-score is -0.39 (inactive) and the cell count stood at 2390 cells.

For `CCN1C(=O)/C(=C/C=C2\N(CC)c3cc(S(=O)(=O)N(C)C)ccc3N2c2ccccc2)SC1=S`, the z-score was 0.11 and the cell count was 2840 cells.

Take `COc1c2c(nc3ccccc13)OC(C(C)(O)COC(C)=O)C2` (stereo not drawn): the z-score is -0.33 (inactive) and the cell count was determined as 2830 cells.

Consider `COc1ccc(-n2c(Cc3cccn3C)nnc2SCC(=O)Nc2cccc(C)c2C)cc1`, for which the z-score is -0.33 (inactive) and the cell count came out at 3130 cells.

`CCOc1ccc(-c2c(C#N)c(N)nc3sc(C(=O)c4ccccc4)c(N)c23)cc1`: the z-score is 0.98 and the cell count was 3090 cells.

`O=C(Cn1ncn2c(cc3ccccc32)c1=O)NCc1ccco1`: the z-score was -0.39 (inactive) and the cell count is 2610 cells.

Take `CC1CCc2c(sc3nn[nH]c(=O)c23)C1` (stereo not drawn): the z-score is -0.33 (inactive) and the cell count stood at 2750 cells.

As to `O=c1ccc(NS(=O)(=O)c2ccccc2)cn1Cc1ccc(Cl)c(Cl)c1`, the z-score was -0.38 (inactive) and the cell count came to 3280 cells.

For the compound `O=C(NC1C=CS(=O)(=O)C1)c1sc2ccccc2c1Cl` (stereo not drawn), the z-score was -0.38 (inactive) and the cell count was 2120 cells.

With `CC[n+]1c(/C=C/C=C/N(C(C)=O)c2ccccc2)sc2cc(OC)ccc21`, the z-score is 7.8 and the cell count stood at 111 cells.

As to `CCCCNC(=O)C1CC(=O)N(C2CCCCC2)C1` (stereo not drawn), the z-score was -0.33 (inactive) and the cell count was 3070 cells.

On to `CC(C)N1CCc2c(sc(NC(=O)c3ccc(S(=O)(=O)N4CCc5ccccc54)cc3)c2C(N)=O)C1`, for which the z-score was 0.77 and the cell count worked out at 1390 cells.

In the case of `CCCc1n[nH]c2c1C(=O)C(C(=O)OC)C(C)(C)C2` (stereo not drawn), the z-score was -0.39 (inactive) and the cell count came to 3280 cells.

For `COc1ccc(-c2ccc3c(N)c(C(=O)c4cccc(OC)c4)sc3n2)cc1`, the z-score was -0.24 (inactive) and the cell count was determined as 2850 cells.

As to `Cc1cccc2sc(NC(=O)C3CCCN(S(=O)(=O)c4cccc5nonc45)C3)nc12` (stereo not drawn), the z-score is -0.28 (inactive) and the cell count is 3130 cells.

Turning to `CNC(=O)C1CC(=O)N/C(=N/N=C(\C)c2cccs2)S1` (stereo not drawn), the z-score is -0.38 (inactive) and the cell count came to 3440 cells.

Regarding `CN(c1cccc(Cl)c1)S(=O)(=O)c1cccc(C(=O)NC2=NCCS2)c1`, the z-score was -0.33 (inactive) and the cell count amounted to 3260 cells.

On to `CN(C)c1ccc(C(=O)N/N=C/c2cc(Br)cc(Br)c2O)cc1`, for which the z-score is -0.38 (inactive) and the cell count was 2500 cells.

On to `Cc1ccc(Nc2nc(Cl)c(C=O)s2)cc1Cl`, for which the z-score is -0.27 (inactive) and the cell count worked out at 2840 cells.

`CCOC(=O)c1c(-c2ccc(C)cc2)csc1NC(=O)/C(C#N)=C/c1ccc(O)c(OC)c1`: the z-score was -0.3 (inactive) and the cell count stood at 2890 cells.

`N#C/C(=C/c1ccc(-c2ccccc2)o1)c1nc(-c2cccs2)cs1`: the z-score is 0.88 and the cell count was 3200 cells.

As for `Cc1ccc(-n2c3c(c(=O)[nH]c2=O)C(C(F)(F)F)(C(F)(F)F)NC(=O)N3)cc1`, the z-score is -0.33 (inactive) and the cell count was 2850 cells.

`Cc1cc(N/N=C/c2ccc([N+](=O)[O-])o2)nc2ccccc12`: the z-score was 0.28 and the cell count is 733 cells.

As to `Cc1ccc(SCc2cc(-c3ccc(Cl)cc3)no2)cc1`, the z-score was -0.38 (inactive) and the cell count came to 2860 cells.

As to `Nc1c(C(=O)N/N=C/c2cccnc2)oc2nc(-c3ccco3)cc(-c3ccco3)c12`, the z-score was -0.32 (inactive) and the cell count was 2960 cells.

For the compound `Nc1nnc(-c2cc3c(ccc4ccccc43)oc2=O)s1`, the z-score was -0.23 (inactive) and the cell count worked out at 2510 cells.

Turning to `O=C(CSc1ncn[nH]1)NCc1ccccc1`, the z-score was -0.39 (inactive) and the cell count worked out at 3380 cells.

In the case of `CCOC(=O)CNC(=O)c1cn(C)c(=O)c2cc(OC)c(OC)cc12`, the z-score is -0.33 (inactive) and the cell count is 3170 cells.

As to `CCN(CC)c1ccc(/C=C2/SC(=O)N(C(C)C)C2=O)o1`, the z-score was 0.73 and the cell count was determined as 596 cells.

With `Cc1cc(C)n(C(=O)CCC2COc3ccccc3O2)n1` (stereo not drawn), the z-score is -0.25 (inactive) and the cell count came out at 2940 cells.

`C=CCSc1nnc(NC(=O)c2cccc(S(=O)(=O)N3CCOCC3)c2)s1`: the z-score was -0.38 (inactive) and the cell count is 2670 cells.

For `COc1ccc(/C(O)=C/c2nc3ccc(C(=O)NCCc4cccc(C)c4)cc3[nH]c2=O)cc1OC`, the z-score is 0.56 and the cell count is 1180 cells.

Take `Cc1cc(NC(=S)N(Cc2ccc(Br)cc2)Cc2ccc(C(=O)O)cc2)ccc1Cl`: the z-score was -0.38 (inactive) and the cell count was 2830 cells.

`Nc1cc2nc3ccccc3nc2cc1N`: the z-score was -0.37 (inactive) and the cell count is 1390 cells.

For `Cc1ccc(C2CC(=O)NC(SCc3ccccc3)=C2C#N)o1` (stereo not drawn), the z-score is -0.33 (inactive) and the cell count was determined as 3270 cells.

For `CCc1cc2c(CN3CCN(CCO)CC3)cc(=O)oc2cc1O`, the z-score was -0.38 (inactive) and the cell count is 3140 cells.

Consider `CN1CCNC(=O)C1CC(=O)NCCC1=CCCCC1` (stereo not drawn), for which the z-score was -0.38 (inactive) and the cell count amounted to 3160 cells.

Turning to `Cc1cc(C)n(-c2ccc(OCC(=O)O)nn2)n1`, the z-score was -0.33 (inactive) and the cell count was 3400 cells.

With `CCC(C(=O)OCC(=O)Nc1cccc(S(=O)(=O)NC2=NCCCCC2)c1)c1ccccc1` (stereo not drawn), the z-score is -0.33 (inactive) and the cell count came to 3080 cells.

For `CCCN1C(=O)c2cccc3c(N4CCCCC4)ccc(c23)C1=O`, the z-score is 0.28 and the cell count worked out at 3300 cells.

In the case of `Cc1cc(/C=C2\SC(=S)NC2=O)c(C)n1C1CC1`, the z-score was -0.3 (inactive) and the cell count is 3040 cells.

With `CN1/C(=C\C=C2/C(=O)Oc3ccccc3C2=O)C(C)(C)c2ccccc21`, the z-score was 3.27 and the cell count stood at 3310 cells.

On to `COc1ccc(NC(=O)CSc2nnc(-c3cccs3)n2C)cc1OC`, for which the z-score was -0.39 (inactive) and the cell count stood at 2880 cells.

For `CCN1CCc2c(sc(NC(=O)Nc3ccc(Cl)c(Cl)c3)c2C(N)=O)C1`, the z-score is 8.59 and the cell count was found to be 1910 cells.

For the compound `CCCc1cc(=O)[nH]c(SCC(=O)NCCCC(=O)OCC)n1`, the z-score was -0.33 (inactive) and the cell count came out at 3040 cells.

For the compound `COCCN(CCOC)Cc1cc(=O)oc2cc3c(cc12)CCC3`, the z-score was -0.38 (inactive) and the cell count stood at 3160 cells.

In the case of `CCOc1ccc(-n2c(SCC(=O)NC(C)CC)nc3n[nH]c(C)c3c2=N)cc1` (stereo not drawn), the z-score was -0.39 (inactive) and the cell count was found to be 2580 cells.

Turning to `Nc1c(C(=O)N/N=C/c2ccccc2Cl)oc2nc(-c3ccccc3)cc(-c3ccco3)c12`, the z-score was -0.27 (inactive) and the cell count stood at 2970 cells.

For `N#C/C(=C/c1ccc(N2CCOCC2)o1)c1nc2ccccc2[nH]1`, the z-score is 0.11 and the cell count stood at 2960 cells.

With `N#C/C(=C\C1=C(N2CCOCC2)C(=C\c2ccc(Cl)cc2)/CC1)C(=O)Nc1ccccc1F`, the z-score was -0.24 (inactive) and the cell count is 3010 cells.

As for `Cc1noc(C)c1CS(=O)(=O)c1ccc(Br)cc1`, the z-score is -0.26 (inactive) and the cell count was found to be 2900 cells.

In the case of `Cc1noc(C)c1S(=O)(=O)N1CCC(C(=O)N2CCN(C3CCCC3)CC2)CC1`, the z-score is -0.33 (inactive) and the cell count turned out to be 2760 cells.

Take `Cc1cc(C)cc(-n2c(=O)c3sccc3n(CC(=O)NCc3ccco3)c2=O)c1`: the z-score was -0.39 (inactive) and the cell count was 3120 cells.

Consider `CCOC(=O)c1ccc(NC(=O)COc2ccc(S(=O)(=O)NC(C)CC)cc2)cc1` (stereo not drawn), for which the z-score is -0.33 (inactive) and the cell count stood at 3160 cells.

Turning to `COc1ccc(OCCn2cc(/C(N)=N/O)c3ccccc32)cc1`, the z-score is -0.33 (inactive) and the cell count amounted to 2930 cells.

(Values after PubChem BioAssay AID2124 (Sanford-Burnham Center for Chemical Genomics, 2009).)
